“Also recorded” adds a separate entry of the source.
Assays:
[1] = target: T1, ABL1(F317I)-phosphorylated (Homo sapiens, UniProt P00519, F317I); assay: KINOMEscan; type: binding; conditions: read-out: %Ctrl @ 1000 nM
T1 construct: purchased DiscoveRx (KINOMEscan service)

[2] = target: T2, AMPK-alpha1 (Homo sapiens, UniProt Q13131); assay: KINOMEscan; type: binding; conditions: read-out: %Ctrl @ 1000 nM
T2 construct: purchased DiscoveRx KINOMEscan

[3] = target: T3, AURKA (Homo sapiens, UniProt O14965); assay: KINOMEscan; type: binding; conditions: read-out: %Ctrl @ 1000 nM
T3 construct: purchased DiscoveRx KINOMEscan

[4] = target: T4, AURKB (Homo sapiens, UniProt Q96GD4); assay: KINOMEscan; type: binding; conditions: read-out: %Ctrl @ 1000 nM
T4 construct: purchased DiscoveRx KINOMEscan

[5] = target: T5, BRSK2 (Homo sapiens, UniProt Q8IWQ3); assay: KINOMEscan; type: binding; conditions: read-out: %Ctrl @ 1000 nM
T5 construct: purchased DiscoveRx KINOMEscan

[6] = target: T6, CSNK1A1 (Homo sapiens, UniProt P48729); assay: KINOMEscan; type: binding; conditions: read-out: %Ctrl @ 1000 nM
T6 construct: purchased DiscoveRx KINOMEscan

[7] = target: T7, CSNK2A1 (Homo sapiens, UniProt P68400); assay: KINOMEscan; type: binding; conditions: read-out: %Ctrl @ 1000 nM
T7 construct: purchased DiscoveRx KINOMEscan

[8] = target: T8, DAPK2 (Homo sapiens, UniProt Q9UIK4); assay: KINOMEscan; type: binding; conditions: read-out: %Ctrl @ 1000 nM
T8 construct: purchased DiscoveRx KINOMEscan

[9] = target: T9, DCAMKL2 (Homo sapiens, UniProt Q8N568); assay: KINOMEscan; type: binding; conditions: read-out: %Ctrl @ 1000 nM
T9 construct: purchased DiscoveRx KINOMEscan

[10] = target: T10, DCAMKL3 (Homo sapiens, UniProt Q9C098); assay: KINOMEscan; type: binding; conditions: read-out: %Ctrl @ 1000 nM
T10 construct: purchased DiscoveRx KINOMEscan

[11] = target: T11, EGFR(L747-T751del,Sins) (Homo sapiens, UniProt P00533, DEL747-750/T751S); assay: KINOMEscan; type: binding; conditions: read-out: %Ctrl @ 1000 nM
T11 construct: purchased DiscoveRx KINOMEscan

[12] = target: T12, EPHA3 (Homo sapiens, UniProt P29320); assay: KINOMEscan; type: binding; conditions: read-out: %Ctrl @ 1000 nM
T12 construct: purchased DiscoveRx KINOMEscan

[13] = target: T13, ERK8 (Homo sapiens, UniProt Q8TD08); assay: KINOMEscan; type: binding; conditions: read-out: %Ctrl @ 1000 nM
T13 construct: purchased DiscoveRx KINOMEscan

[14] = target: T14, FGFR1 (Homo sapiens, UniProt P11362); assay: KINOMEscan; type: binding; conditions: read-out: %Ctrl @ 1000 nM
T14 construct: purchased DiscoveRx KINOMEscan

[15] = target: T15, FLT3(R834Q) (Homo sapiens, UniProt P36888, R834Q); assay: KINOMEscan; type: binding; conditions: read-out: %Ctrl @ 1000 nM
T15 construct: purchased DiscoveRx KINOMEscan

[16] = target: T16, GSK3B (Homo sapiens, UniProt P49841); assay: KINOMEscan; type: binding; conditions: read-out: %Ctrl @ 1000 nM
T16 construct: purchased DiscoveRx KINOMEscan

[17] = target: T17, HASPIN (Homo sapiens, UniProt Q8TF76); assay: KINOMEscan; type: binding; conditions: read-out: %Ctrl @ 1000 nM
T17 construct: purchased DiscoveRx KINOMEscan

[18] = target: T18, HIPK2 (Homo sapiens, UniProt Q9H2X6); assay: KINOMEscan; type: binding; conditions: read-out: %Ctrl @ 1000 nM
T18 construct: purchased DiscoveRx KINOMEscan

[19] = target: T19, ITK (Homo sapiens, UniProt Q08881); assay: KINOMEscan; type: binding; conditions: read-out: %Ctrl @ 1000 nM
T19 construct: purchased DiscoveRx KINOMEscan

[20] = target: T20, JAK1(JH1domain-catalytic) (Homo sapiens, UniProt P23458); assay: KINOMEscan; type: binding; conditions: read-out: %Ctrl @ 1000 nM
T20 construct: JAK1(JH1domain-catalytic); purchased DiscoveRx KINOMEscan

[21] = target: T21, JNK1 (Homo sapiens, UniProt P45983); assay: KINOMEscan; type: binding; conditions: read-out: %Ctrl @ 1000 nM
T21 construct: purchased DiscoveRx KINOMEscan

[22] = target: T22, LATS1 (Homo sapiens, UniProt O95835); assay: KINOMEscan; type: binding; conditions: read-out: %Ctrl @ 1000 nM
T22 construct: purchased DiscoveRx KINOMEscan

[23] = target: T23, LATS2 (Homo sapiens, UniProt Q9NRM7); assay: KINOMEscan; type: binding; conditions: read-out: %Ctrl @ 1000 nM
T23 construct: purchased DiscoveRx KINOMEscan

[24] = target: T24, LKB1 (Homo sapiens, UniProt Q15831); assay: KINOMEscan; type: binding; conditions: read-out: %Ctrl @ 1000 nM
T24 construct: purchased DiscoveRx KINOMEscan

[25] = target: T25, MARK1 (Homo sapiens, UniProt Q9P0L2); assay: KINOMEscan; type: binding; conditions: read-out: %Ctrl @ 1000 nM
T25 construct: purchased DiscoveRx KINOMEscan

[26] = target: T26, MARK3 (Homo sapiens, UniProt P27448); assay: KINOMEscan; type: binding; conditions: read-out: %Ctrl @ 1000 nM
T26 construct: purchased DiscoveRx KINOMEscan

[27] = target: T27, MLK2 (Homo sapiens, UniProt Q02779); assay: KINOMEscan; type: binding; conditions: read-out: %Ctrl @ 1000 nM
T27 construct: purchased DiscoveRx KINOMEscan

[28] = target: T28, MUSK (Homo sapiens, UniProt O15146); assay: KINOMEscan; type: binding; conditions: read-out: %Ctrl @ 1000 nM
T28 construct: purchased DiscoveRx KINOMEscan

[29] = target: T29, NDR1 (Homo sapiens, UniProt Q15208); assay: KINOMEscan; type: binding; conditions: read-out: %Ctrl @ 1000 nM
T29 construct: purchased DiscoveRx KINOMEscan

[30] = target: T30, PFTAIRE2 (Homo sapiens, UniProt Q96Q40); assay: KINOMEscan; type: binding; conditions: read-out: %Ctrl @ 1000 nM
T30 construct: purchased DiscoveRx KINOMEscan

[31] = target: T31, PIK3CA(C420R) (Homo sapiens, UniProt P42336, C420R); assay: KINOMEscan; type: binding; conditions: read-out: %Ctrl @ 1000 nM
T31 construct: purchased DiscoveRx KINOMEscan

[32] = target: T32, PIK3CA(E545K) (Homo sapiens, UniProt P42336, E545K); assay: KINOMEscan; type: binding; conditions: read-out: %Ctrl @ 1000 nM
T32 construct: purchased DiscoveRx KINOMEscan

[33] = target: T33, RIOK2 (Homo sapiens, UniProt Q9BVS4); assay: KINOMEscan; type: binding; conditions: read-out: %Ctrl @ 1000 nM
T33 construct: purchased DiscoveRx KINOMEscan

[34] = target: RPS6KA5(Kin.Dom.2-C-terminal) (Homo sapiens, UniProt O75582); assay: KINOMEscan; type: binding; conditions: read-out: %Ctrl @ 1000 nM
[35] = target: T34, RSK2(Kin.Dom.2-C-terminal) (Homo sapiens, UniProt P51812); assay: KINOMEscan; type: binding; conditions: read-out: %Ctrl @ 1000 nM
T34 construct: RSK2(Kin.Dom.2-C-terminal); purchased DiscoveRx KINOMEscan

[36] = target: T35, SBK1 (Homo sapiens, UniProt Q52WX2); assay: KINOMEscan; type: binding; conditions: read-out: %Ctrl @ 1000 nM
T35 construct: purchased DiscoveRx KINOMEscan

[37] = target: T36, TNNI3K (Homo sapiens, UniProt Q59H18); assay: KINOMEscan; type: binding; conditions: read-out: %Ctrl @ 1000 nM
T36 construct: purchased DiscoveRx KINOMEscan

[38] = target: T37, YES (Homo sapiens, UniProt P07947); assay: KINOMEscan; type: binding; conditions: read-out: %Ctrl @ 1000 nM
T37 construct: purchased DiscoveRx KINOMEscan

[39] = target: T38, YSK1 (Homo sapiens, UniProt O00506); assay: KINOMEscan; type: binding; conditions: read-out: %Ctrl @ 1000 nM
T38 construct: purchased DiscoveRx

[40] = target: T39, ZAP70 (Homo sapiens, UniProt P43403); assay: KINOMEscan; type: binding; conditions: read-out: %Ctrl @ 1000 nM
T39 construct: purchased DiscoveRx

[41] = target: SMYD2 (Homo sapiens, UniProt Q9NRG4); assay: Mechanism-of-inhibition studies (SPA, Cheng-Prusoff); type: biochemical; design: The SMYD2 full-length enzyme with an N-terminal 6xHis tag was expressed in Escherichia coli; made in house; host or cells: Escherichia coli
Chain of SMYD2 (Q9NRG4 whole entry): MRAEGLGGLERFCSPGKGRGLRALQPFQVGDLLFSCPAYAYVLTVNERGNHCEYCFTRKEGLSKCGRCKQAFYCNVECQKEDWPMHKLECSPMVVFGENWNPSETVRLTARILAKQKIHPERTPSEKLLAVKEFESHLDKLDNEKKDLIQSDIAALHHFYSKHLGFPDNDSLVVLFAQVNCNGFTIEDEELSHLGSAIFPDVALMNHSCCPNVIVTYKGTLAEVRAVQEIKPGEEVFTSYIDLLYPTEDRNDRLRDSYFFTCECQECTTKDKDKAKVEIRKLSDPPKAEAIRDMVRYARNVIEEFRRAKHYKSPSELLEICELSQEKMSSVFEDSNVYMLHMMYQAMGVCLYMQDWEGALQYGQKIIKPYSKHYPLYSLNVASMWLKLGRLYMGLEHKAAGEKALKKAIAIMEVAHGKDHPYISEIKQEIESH

T4 sequence (Q96GD4 whole entry): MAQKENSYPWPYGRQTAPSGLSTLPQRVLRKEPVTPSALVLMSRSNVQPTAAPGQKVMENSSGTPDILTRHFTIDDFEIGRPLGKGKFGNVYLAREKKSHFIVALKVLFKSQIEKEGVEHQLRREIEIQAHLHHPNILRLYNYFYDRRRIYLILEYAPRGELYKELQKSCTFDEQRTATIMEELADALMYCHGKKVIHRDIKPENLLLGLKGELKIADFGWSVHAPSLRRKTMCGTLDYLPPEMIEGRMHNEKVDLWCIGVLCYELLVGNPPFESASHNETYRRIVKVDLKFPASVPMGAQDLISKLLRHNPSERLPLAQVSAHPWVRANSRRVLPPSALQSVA
T27 sequence (Q02779 whole entry): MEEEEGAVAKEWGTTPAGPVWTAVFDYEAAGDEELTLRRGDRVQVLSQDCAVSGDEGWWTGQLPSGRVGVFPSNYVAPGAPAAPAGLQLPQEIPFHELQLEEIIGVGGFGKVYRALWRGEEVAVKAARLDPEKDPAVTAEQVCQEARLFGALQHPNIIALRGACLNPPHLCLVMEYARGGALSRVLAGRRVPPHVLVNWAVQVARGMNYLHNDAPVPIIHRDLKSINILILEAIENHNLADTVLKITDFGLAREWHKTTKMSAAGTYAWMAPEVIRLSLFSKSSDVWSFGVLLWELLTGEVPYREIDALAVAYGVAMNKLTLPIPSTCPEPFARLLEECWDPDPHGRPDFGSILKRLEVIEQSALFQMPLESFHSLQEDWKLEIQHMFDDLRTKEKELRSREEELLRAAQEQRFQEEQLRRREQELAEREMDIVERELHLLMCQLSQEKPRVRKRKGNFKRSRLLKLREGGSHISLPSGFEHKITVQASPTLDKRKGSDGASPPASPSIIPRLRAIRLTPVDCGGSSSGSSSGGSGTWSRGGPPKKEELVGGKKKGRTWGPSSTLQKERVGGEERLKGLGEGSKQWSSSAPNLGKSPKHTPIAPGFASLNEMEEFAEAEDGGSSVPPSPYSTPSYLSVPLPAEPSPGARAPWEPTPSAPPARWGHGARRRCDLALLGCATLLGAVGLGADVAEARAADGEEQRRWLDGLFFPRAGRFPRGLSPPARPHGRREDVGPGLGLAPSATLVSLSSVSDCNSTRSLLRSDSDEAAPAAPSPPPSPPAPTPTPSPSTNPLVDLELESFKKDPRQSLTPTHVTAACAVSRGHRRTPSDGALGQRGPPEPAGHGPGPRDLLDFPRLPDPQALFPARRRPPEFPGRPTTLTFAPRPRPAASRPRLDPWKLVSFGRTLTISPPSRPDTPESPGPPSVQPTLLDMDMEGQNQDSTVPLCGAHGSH
T17 sequence (Q8TF76 whole entry): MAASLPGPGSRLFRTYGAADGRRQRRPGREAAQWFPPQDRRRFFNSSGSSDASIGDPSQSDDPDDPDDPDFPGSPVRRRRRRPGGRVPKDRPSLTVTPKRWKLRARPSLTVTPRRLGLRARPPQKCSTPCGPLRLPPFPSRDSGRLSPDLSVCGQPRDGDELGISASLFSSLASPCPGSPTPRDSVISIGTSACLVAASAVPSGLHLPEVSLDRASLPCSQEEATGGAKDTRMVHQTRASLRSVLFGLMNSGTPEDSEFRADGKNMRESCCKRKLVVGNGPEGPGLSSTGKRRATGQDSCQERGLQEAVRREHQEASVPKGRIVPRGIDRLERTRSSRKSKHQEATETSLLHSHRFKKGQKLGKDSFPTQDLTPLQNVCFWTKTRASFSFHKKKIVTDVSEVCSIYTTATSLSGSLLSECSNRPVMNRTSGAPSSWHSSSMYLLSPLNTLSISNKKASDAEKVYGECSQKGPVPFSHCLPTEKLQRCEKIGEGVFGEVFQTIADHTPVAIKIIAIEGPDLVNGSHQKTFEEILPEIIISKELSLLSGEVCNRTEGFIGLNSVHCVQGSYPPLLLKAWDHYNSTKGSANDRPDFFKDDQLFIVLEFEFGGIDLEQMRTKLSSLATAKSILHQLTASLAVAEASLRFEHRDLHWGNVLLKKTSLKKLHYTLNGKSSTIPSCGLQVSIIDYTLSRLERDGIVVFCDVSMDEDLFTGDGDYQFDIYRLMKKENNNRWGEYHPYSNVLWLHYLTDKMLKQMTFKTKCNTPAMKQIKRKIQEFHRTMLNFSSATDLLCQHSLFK
T10 sequence (Q9C098 whole entry): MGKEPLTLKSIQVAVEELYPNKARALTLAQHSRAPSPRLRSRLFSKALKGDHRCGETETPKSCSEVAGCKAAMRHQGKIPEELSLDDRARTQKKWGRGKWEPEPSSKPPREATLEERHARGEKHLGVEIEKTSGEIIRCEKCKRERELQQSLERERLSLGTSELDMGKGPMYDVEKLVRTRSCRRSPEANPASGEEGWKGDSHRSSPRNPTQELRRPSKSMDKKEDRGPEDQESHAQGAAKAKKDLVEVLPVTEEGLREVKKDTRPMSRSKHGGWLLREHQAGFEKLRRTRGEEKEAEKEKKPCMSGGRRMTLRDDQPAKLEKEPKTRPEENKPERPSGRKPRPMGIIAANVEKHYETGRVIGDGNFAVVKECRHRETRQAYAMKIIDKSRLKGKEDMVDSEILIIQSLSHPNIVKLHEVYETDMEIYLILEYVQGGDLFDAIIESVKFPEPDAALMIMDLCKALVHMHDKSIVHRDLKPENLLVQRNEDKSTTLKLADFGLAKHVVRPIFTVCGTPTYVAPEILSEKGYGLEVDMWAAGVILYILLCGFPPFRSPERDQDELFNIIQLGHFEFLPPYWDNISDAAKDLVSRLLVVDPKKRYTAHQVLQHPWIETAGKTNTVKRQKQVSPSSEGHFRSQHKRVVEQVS
T12 sequence (P29320 21-983): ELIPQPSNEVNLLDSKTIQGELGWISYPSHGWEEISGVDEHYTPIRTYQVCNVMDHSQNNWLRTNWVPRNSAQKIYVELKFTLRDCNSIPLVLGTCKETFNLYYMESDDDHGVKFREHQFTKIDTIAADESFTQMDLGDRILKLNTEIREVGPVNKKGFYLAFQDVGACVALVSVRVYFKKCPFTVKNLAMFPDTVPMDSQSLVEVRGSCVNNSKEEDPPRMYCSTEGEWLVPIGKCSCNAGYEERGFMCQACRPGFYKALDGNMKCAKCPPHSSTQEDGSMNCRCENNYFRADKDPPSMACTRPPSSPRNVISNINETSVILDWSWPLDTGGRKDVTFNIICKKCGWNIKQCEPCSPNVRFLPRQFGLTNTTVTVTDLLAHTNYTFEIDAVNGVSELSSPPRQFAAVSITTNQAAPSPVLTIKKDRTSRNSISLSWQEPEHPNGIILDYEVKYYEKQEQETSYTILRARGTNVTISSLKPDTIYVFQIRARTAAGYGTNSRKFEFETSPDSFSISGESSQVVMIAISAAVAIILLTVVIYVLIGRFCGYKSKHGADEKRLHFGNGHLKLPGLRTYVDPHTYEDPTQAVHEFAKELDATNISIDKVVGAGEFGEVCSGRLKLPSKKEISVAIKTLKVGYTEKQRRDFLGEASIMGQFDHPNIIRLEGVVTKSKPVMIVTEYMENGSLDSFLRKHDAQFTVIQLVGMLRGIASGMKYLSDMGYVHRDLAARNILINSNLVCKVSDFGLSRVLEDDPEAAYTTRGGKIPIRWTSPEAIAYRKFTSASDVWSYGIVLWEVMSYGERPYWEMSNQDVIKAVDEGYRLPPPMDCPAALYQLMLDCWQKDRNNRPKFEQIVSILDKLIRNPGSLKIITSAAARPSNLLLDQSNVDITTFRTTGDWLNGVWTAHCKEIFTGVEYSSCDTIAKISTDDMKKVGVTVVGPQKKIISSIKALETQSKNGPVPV
T30 sequence (Q96Q40 whole entry): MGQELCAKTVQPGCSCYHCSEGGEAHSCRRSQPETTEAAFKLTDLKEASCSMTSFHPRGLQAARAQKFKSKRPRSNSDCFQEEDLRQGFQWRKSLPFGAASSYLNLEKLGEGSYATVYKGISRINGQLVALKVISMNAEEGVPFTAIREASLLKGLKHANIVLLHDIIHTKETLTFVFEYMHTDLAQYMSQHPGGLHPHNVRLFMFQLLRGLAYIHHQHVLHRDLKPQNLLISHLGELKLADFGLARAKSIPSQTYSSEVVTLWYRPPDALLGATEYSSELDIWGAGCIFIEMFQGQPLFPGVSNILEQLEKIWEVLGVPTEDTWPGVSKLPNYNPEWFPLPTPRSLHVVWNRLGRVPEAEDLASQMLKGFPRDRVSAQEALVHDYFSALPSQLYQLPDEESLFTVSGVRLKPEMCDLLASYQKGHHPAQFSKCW
T11 sequence (P00533 with tags, fused parts or gaps DEL747-750/T751S limits assumed): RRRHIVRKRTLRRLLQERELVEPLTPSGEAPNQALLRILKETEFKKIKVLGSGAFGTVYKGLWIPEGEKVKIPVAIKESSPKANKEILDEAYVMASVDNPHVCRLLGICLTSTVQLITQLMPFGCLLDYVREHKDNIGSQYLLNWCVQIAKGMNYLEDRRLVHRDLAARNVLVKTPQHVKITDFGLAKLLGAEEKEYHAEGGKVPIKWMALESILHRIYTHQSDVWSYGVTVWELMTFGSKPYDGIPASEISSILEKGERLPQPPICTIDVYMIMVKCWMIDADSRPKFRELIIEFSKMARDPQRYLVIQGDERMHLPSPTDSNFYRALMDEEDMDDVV

## CCN(C(=O)CO)[C@H]1CN(/C(=N\C#N)Nc2cccc(OC(F)F)c2)N=C1c1ccc(Cl)c(Cl)c1 [(S)-4]
[1]
  remaining binding at 1 µM: 98%
[2]
  remaining binding at 1 µM: 68%
[3]
  remaining binding at 1 µM: 96%
[4]
  remaining binding at 1 µM: 93%
[5]
  remaining binding at 1 µM: 74%
[6]
  remaining binding at 1 µM: 63%
[7]
  remaining binding at 1 µM: 78%
[8]
  remaining binding at 1 µM: 100%
[9]
  remaining binding at 1 µM: 93%
[10]
  remaining binding at 1 µM: 75%
[11]
  remaining binding at 1 µM: 70%
[12]
  remaining binding at 1 µM: 100%
[13]
  remaining binding at 1 µM: 96%
[14]
  remaining binding at 1 µM: 59%
[15]
  remaining binding at 1 µM: 100%
[16]
  remaining binding at 1 µM: 88%
[17]
  remaining binding at 1 µM: 100%
[18]
  remaining binding at 1 µM: 100%
[19]
  remaining binding at 1 µM: 94%
[20]
  remaining binding at 1 µM: 85%
[21]
  remaining binding at 1 µM: 96%
[22]
  remaining binding at 1 µM: 90%
[23]
  remaining binding at 1 µM: 100%
[24]
  remaining binding at 1 µM: 83%
[25]
  remaining binding at 1 µM: 71%
[26]
  remaining binding at 1 µM: 69%
[27]
  remaining binding at 1 µM: 77%
[28]
  remaining binding at 1 µM: 97%
[29]
  remaining binding at 1 µM: 82%
[30]
  remaining binding at 1 µM: 100%
[31]
  remaining binding at 1 µM: 76%
[32]
  remaining binding at 1 µM: 71%
[33]
  remaining binding at 1 µM: 100%
[34]
  remaining binding at 1 µM: 99%
[35]
  remaining binding at 1 µM: 100%
[36]
  remaining binding at 1 µM: 88%
[37]
  remaining binding at 1 µM: 73%
[38]
  remaining binding at 1 µM: 100%
[39]
  remaining binding at 1 µM: 90%
[40]
  remaining binding at 1 µM: 100%
[41]
  Mode of inhibition / mode of action: peptide-competitive, SAM-uncompetitive inhibitor; also recorded: substrate competitive

From paper PMC4917279 (Journal of Medicinal Chemistry, 2016)
